Test system: CD1 female mouse brain lipidome
Assay: Brain-region lipid levels (HPLC/MS/MS lipidomics) 2 h after single i.p. 3 mg/kg CP 55,940 vs vehicle
Assay type: in vivo
Conditions: brainstem
Protocol: The Bloomington Institutional Animal Care and Use Committee of Indiana University reviewed and approved the animal procedures. Female mice from the CD1 strain were utilized to match our study examining THC’s effects on the brain lipidome ([Leishman et al., 2018]). Mice were given a single i.p. injection of either 3 mg/kg CP or 1:1:18 cremophor:ethanol:saline vehicle (please refer to the section “3 mg/kg CP Is Relevant for Synthetic Cannabinoid Abuse and Has Stronger Effects on the Female Mouse Brain Lipidome During Adolescence” for a justification of dose and use of female mice). Three different age groups were given injections: PND 35 and PND 50 adolescents, and adult mice (PND 113). At least eight mice in each age group received CP and at least eight received vehicle. Matching the THC study time course ([Leishman et al., 2018]), mice were sacrificed via rapid decapitation 2 h after injection. Brains were immediately removed and flash-frozen in liquid nitrogen, and then stored at -80°C until dissections were performed. Brains were dissected on an ice-cold dissection plate into the following regions: STR, HIPP, CER, THAL, CTX, HYP, MID, and STEM. These abbreviations for these brain areas will be used exclusively when discussing the results generated by these specific dissections. Each dissected area was immediately placed in liquid nitrogen and then stored at -80°C until used for lipid extraction.
Tissue extracts were performed as previously described ([Bradshaw et al., 2006]; [Stuart et al., 2013]; [Raboune et al., 2014]; [Leishman et al., 2016a],[b], [2017], [2018]). First, samples were shock frozen in liquid nitrogen, weighed, and transferred to a centrifuge tube. The mass of the largest sample was multiplied by 50 to determine how many milliliters of HPLC-grade methanol (Fisher, Fair Lawn, NJ, United States) to add. Then, samples were spiked with 500 pmol deuterium-labeled NAGly (d8NAGly; Cayman Chemical, Ann Arbor, MI, United States). Samples were placed on ice in darkness for 2 h then individually homogenized and centrifuged at 19,000 × g for 20 min at 20°C. Supernatants were diluted with HPLC water (purified in house) to make a solution of 75% water, 25% supernatant. Lipids were partially purified on C18 solid phase extraction columns (Agilent, Palo Alto, CA, United States). A series of four elutions with 1.5 mL of 60%, 75%, 85%, and 100% methanol were collected ([Stuart et al., 2013]; [Leishman et al., 2016a],[b], [2018]).
As previously described ([Bradshaw et al., 2006]; [Tan et al., 2006]; [Smoum et al., 2010]; [Stuart et al., 2013]; [Tortoriello et al., 2013]; [Raboune et al., 2014]; [Leishman et al., 2016a],[b], [2017], [2018]), samples were analyzed using an Applied Biosystems API 3000 triple quadrupole mass spectrometer with electrospray ionization (Foster City, CA, United States). Using an Agilent XDB-C18 reversed phase analytical column and optimized mobile phase gradients, 20 μL from each elution were chromatographed. Two Shimadzu 10ADvp pumps (Columbia, MD, United States) provided the pressure for gradient elution. Mobile phase A: 20% methanol, 80% water (v/v) and 1 mM ammonium acetate (Sigma, St. Louis, MO, United States). Mobile phase B: 100% methanol, 1 mM ammonium acetate. Every method run began with 0% mobile phase B, reached 100% mobile phase B flowing at 0.2 mL/min, and gradually returned to 0% mobile phase B.
This screening library will be referred to as the lipidome when discussing data from this study. HPLC/MS/MS data were analyzed using Analyst software (Applied Biosystems) ([Bradshaw et al., 2006]; [Tan et al., 2006]; [Stuart et al., 2013]; [Tortoriello et al., 2013]; [Raboune et al., 2014]; [Leishman et al., 2016a],[b], [2017], [2018]). Chromatograms (Supplementary Figure 3) were generated by determining the retention time of analytes from the analytical column with a [M-1] or [M+1] parent peak and a fragmentation peak corresponding to the programmed values. […]

[1] = PND 50, 3 mg/kg CP 55,940, one-way ANOVA p .000
[2] = PND 50, 3 mg/kg CP 55,940, one-way ANOVA p .001
[3] = PND 50, 3 mg/kg CP 55,940, one-way ANOVA p .002
[4] = PND 50, 3 mg/kg CP 55,940, one-way ANOVA p .003
[5] = PND 50, 3 mg/kg CP 55,940, one-way ANOVA p .006
[6] = PND 50, 3 mg/kg CP 55,940, one-way ANOVA p .007
[7] = PND 50, 3 mg/kg CP 55,940, one-way ANOVA p .008
[8] = PND 50, 3 mg/kg CP 55,940, one-way ANOVA p .014
[9] = PND 50, 3 mg/kg CP 55,940, one-way ANOVA p .015
[10] = PND 50, 3 mg/kg CP 55,940, one-way ANOVA p .018
[11] = PND 50, 3 mg/kg CP 55,940, one-way ANOVA p .023
[12] = PND 50, 3 mg/kg CP 55,940, one-way ANOVA p .041
[13] = PND 50, 3 mg/kg CP 55,940, one-way ANOVA p .043

## CCCCCCC(C)(C)c1ccc([C@@H]2C[C@H](O)CC[C@H]2CCCO)c(O)c1 [CP 55,940]
PND 50, 3 mg/kg CP 55,940
  N-palmitoyl methionine level, Mean: 7.37E-13
  N-palmitoyl phenylalanine level, Mean: 1.09E-12
  N-palmitoyl proline level, Mean: BDL
  N-palmitoyl serine level, Mean: 2E-11
  N-palmitoyl tryptophan level, Mean: BDL
  N-palmitoyl tyrosine level, Mean: 5.77E-13
  N-palmitoyl valine level, Mean: 1.73E-13
  N-stearoyl GABA level, Mean: 7.1E-12
  N-stearoyl alanine level, Mean: 1.5E-12
  N-stearoyl ethanolamine level, Mean: 2.63E-11
  N-stearoyl glycine level, Mean: 4.43E-12
  N-stearoyl leucine level, Mean: 7.24E-13
  N-stearoyl methionine level, Mean: 8.45E-13
  N-stearoyl phenylalanine level, Mean: 9.56E-13
  N-stearoyl proline level, Mean: BDL
  N-stearoyl serine level, Mean: 3.14E-11
  N-stearoyl tryptophan level, Mean: BDL
  N-stearoyl tyrosine level, Mean: 7.69E-14
  Oleic acid level, Mean: 1.94E-10
  PGE2 level, Mean: 1.11E-10
  PhosphoLEA level, Mean: 7.34E-13
  THC level, Mean: BDL
[1]
  N-arachidonoyl GABA Direction (relative to Veh): ↓
  N-arachidonoyl GABA Magnitude (x Veh level): 0.68 x Veh level
  PGF2α Direction (relative to Veh): ↓
  PGF2α Magnitude (x Veh level): 0.74 x Veh level
[2]
  N-palmitoyl leucine, Direction (relative to Veh): ↑
  N-palmitoyl leucine, Magnitude (x Veh level): 1.44 x Veh level
[3]
  6-ketoPGF1α Direction (relative to Veh): ↓
  6-ketoPGF1α Magnitude (x Veh level): 0.70 x Veh level
[4]
  N-arachidonoyl taurine Direction (relative to Veh): ↓
  N-arachidonoyl taurine Magnitude (x Veh level): 0.83 x Veh level
[5]
  N-palmitoyl tyrosine Magnitude (x Veh level): 1.23 x Veh level
  N-palmitoyl tyrosine, Direction (relative to Veh): ↑
[6]
  N-arachidonoyl tyrosine, Direction (relative to Veh): ↓
  N-arachidonoyl tyrosine, Magnitude (x Veh level): 0.74 x Veh level
[7]
  N-arachidonoyl serine Direction (relative to Veh): ↓
  N-arachidonoyl serine Magnitude (x Veh level): 0.80 x Veh level
[8]
  PGE2 Direction (relative to Veh): ↓
  PGE2 Magnitude (x Veh level): 0.73 x Veh level
[9]
  2-linoleoyl glycerol Direction (relative to Veh): ↓
  2-linoleoyl glycerol Magnitude (x Veh level): 0.74 x Veh level
[10]
  Oleic acid, Direction (relative to Veh): ↓
  Oleic acid, Magnitude (x Veh level): 0.84 x Veh level
[11]
  N-arachidonoyl phenylalanine, Direction (relative to Veh): ↑
  N-arachidonoyl phenylalanine, Magnitude (x Veh level): 1.40 x Veh level
[12]
  N-oleoyl methionine, Direction (relative to Veh): ↓
  N-oleoyl methionine, Magnitude (x Veh level): 0.68 x Veh level
[13]
  Linoleic acid, Direction (relative to Veh): ↓
  Linoleic acid, Magnitude (x Veh level): 0.81 x Veh level
PND 50, 3 mg/kg CP 55,940, one-way ANOVA p .046
  2-oleoyl glycerol, Direction (relative to Veh): ↓

From PMC6277767, “Broad and Region-Specific Impacts of the Synthetic Cannabinoid CP 55,940 in Adolescent and Adult Female Mouse Brains” (Frontiers in Molecular Neuroscience, 2018)
